From US7807201B2, “Antifungal agent comprising natural plant extracts” (Binex Co., Ltd., priority 2007, dated 2010)

Test system: Saprolegnia parasitica
Assay: Antifungal effect at different concentrations by 24-well plate method (MIC)
Assay type: cell-based
Conditions: for Antifungal effect: water mould Saprolegnia parasitica on GY agar
From the text: Water moulds were taken from the body surface of rainbow trout. The water moulds were isolated and subcultured using GY medium (broth) containing 10 g/L of glucose and 2.5 g/L of yeast extract and GY medium (agar) containing 10 g/L of glucose, 2.5 g/L of yeast extract and 7.5 g/L of agar. The pathogenic water moulds were isolated and identified as Saprolegnia parasitica (Gene Bank Data homology search result: 99%) through ITS-5.8S rDNA sequencing at the Korean Culture Center of Microorganisms (KCCM) of the Korean Federation of Culture Collections (KFCC). The natural product sweet flag extract was compared with malachite green. Antifungal effect and minimal inhibitory concentration (MIC) were tested by the 24-well plate method and the diffusion method.
GY agar was placed on a sterilized 24-well plate. […] Hyphae of Saprolegnia parasitica, which had been cultured in GY agar plate, taken with a 50 mL syringe were added to each plate and antifungal activity test was carried out for 72 hours. Photographs were taken every 24 hours.
GY agar was placed on a sterilized 24-well plate. After waiting until the medium was dry, each 100 μL of 20 ppm, 2 ppm and 0.2 ppm malachite green (MG) was added to the GY medium (control), in the same manner as in FIG. 1. Hyphae of Saprolegnia parasitica, which had been cultured in GY agar plate, taken with a 50 mL syringe were added to each plate and antifungal activity test was carried out for 72 hours. Photographs were taken every 24 hours.

CN(C)c1ccc(C(=C2C=CC(=[N+](C)C)C=C2)c2ccccc2)cc1 [MG, malachite green]
Antifungal effect (0.2 ppm): + | Antifungal effect (2 ppm): ++ | Antifungal effect (20 ppm): +++ | MIC (Saprolegnia parasitica, read-out: MIC (minimal inhibitory concentration)): 2 µg/mL
